Measurements published in US20070293493A1, “OXAZOLIDINONE ANTIBIOTICS AND DERIVATIVES THEREOF” (priority 2003, published 2007).
In brackets after ≈: the same amount, converted by molar mass. Like-named read-outs stand apart in the source and are kept apart here.

How the values were obtained:
Type in all cases: cell-based
[1] = test system: Staphylococcus aureus MR (methicillin resistant); test: MIC, agar dilution method, Mueller-Hinton agar; conditions: 35° C., 24 hours
Protocol: (§1) The following in vitro results were obtained based on an agar dilution method except for C. pneumoniae. The activity is presented as the minimum inhibitory concentration (MIC).
(§2) S. aureus and M. catarrhalis were tested on Mueller-Hinton agar, using an approximate inoculum of 1×10^4 cfu/spot an incubation temperature of 35° C. for 24 hours. The MIC was defined as the lowest concentration at which no visible bacterial growth was observed.

[2] = test system: Staphylococcus aureus CR (chloramphenicol resistant); test: MIC, agar dilution method, Mueller-Hinton agar; conditions: 35° C., 24 hours
Protocol: as §1, §2

[3] = test system: Staphylococcus aureus Smith; test: MIC, agar dilution method, Mueller-Hinton agar; conditions: 35° C., 24 hours
Protocol: as §1, §2

[4] = test system: Moraxella catarrhalis ATCC25238; test: MIC, agar dilution method, Mueller-Hinton agar; conditions: 35° C., 24 hours
Protocol: as §1, §2

[5] = test system: Streptococcus pyogenes IID692; test: MIC, agar dilution method, Mueller-Hinton agar with 5% defibrinated horse blood; conditions: 35° C., 5% CO2, 24 hours
Protocol: as §1
as §2, with “Streptococci” for “S. aureus”, “enterococci” for “M. catarrhalis”, “agar supplemented with 5% defibrinated horse blood,” for “agar,”, “C. in an atmosphere of 5% CO2” for “C.”

[6] = test system: Enterococcus faecium VRQR (vancomycin resistant, quinolone resistant); test: as above; conditions: 35° C., 5% CO2, 24 hours
Protocol: as §1
as §2, with “Streptococci” for “S. aureus”, “enterococci” for “M. catarrhalis”, “agar supplemented with 5% defibrinated horse blood,” for “agar,”, “C. in an atmosphere of 5% CO2” for “C.”

[7] = test system: Streptococcus pneumoniae IID553; test: as above; conditions: 35° C., 5% CO2, 24 hours
Protocol: as §1
as §2, with “Streptococci” for “S. aureus”, “enterococci” for “M. catarrhalis”, “agar supplemented with 5% defibrinated horse blood,” for “agar,”, “C. in an atmosphere of 5% CO2” for “C.”

[8] = test system: Streptococcus pneumoniae PRQR (penicillin resistant, quinolone resistant); test: as above; conditions: 35° C., 5% CO2, 24 hours
Protocol: as §1
as §2, with “Streptococci” for “S. aureus”, “enterococci” for “M. catarrhalis”, “agar supplemented with 5% defibrinated horse blood,” for “agar,”, “C. in an atmosphere of 5% CO2” for “C.”

MIC ([1]; read-out: MIC) [µg/mL]	MIC ([2]; read-out: MIC) [µg/mL]	MIC ([3]; read-out: MIC) [µg/mL]	MIC ([4]; read-out: MIC) [µg/mL]	MIC ([5]; read-out: MIC) [µg/mL]	MIC ([6]; read-out: MIC) [µg/mL]	MIC ([7]; read-out: MIC) [µg/mL]	MIC ([8]; read-out: MIC) [µg/mL]	MIC [1] [µg/mL]	MIC [2] [µg/mL]	MIC [3] [µg/mL]	MIC [4] [µg/mL]	MIC [5] [µg/mL]	MIC [6] [µg/mL]	MIC [7] [µg/mL]	MIC [8] [µg/mL]	Compound
0.25 (≈ 0.664 µM)	2 (≈ 5.31 µM)	0.125 (≈ 0.332 µM)	1 (≈ 2.66 µM)	0.25 (≈ 0.664 µM)	1 (≈ 2.66 µM)	0.25 (≈ 0.664 µM)	0.25 (≈ 0.664 µM)									N[C@@H]1[C@H]2CN(c3c(F)cc(N4C[C@H](Cn5ccnn5)OC4=O)cc3F)C[C@@H]12 [example 2, 1-[5(R)-3-[4-[(1α,5α,6α)-6-Amino-3-azabicyclo[3.1.0]hexan-3-yl]-3,5-difluorophenyl]-2-oxooxazolidin-5-ylmethyl]-1,2,3-triazole]
								0.06 (≈ 0.164 µM)	1 (≈ 2.74 µM)	0.125 (≈ 0.342 µM)	1 (≈ 2.74 µM)	0.125 (≈ 0.342 µM)	0.25 (≈ 0.684 µM)	0.5 (≈ 1.37 µM)	0.25 (≈ 0.684 µM)	N#C[C@@H]1[C@H]2C=C(c3ccc(N4C[C@H](Cn5ccnn5)OC4=O)cc3F)C[C@@H]12 [example 8, 1-[5(R)-3-[4-[(1α,5α,6α)-6-Cyanobicyclo[3.1.0]hex-2-en-3-yl]-3-fluorophenyl]-2-oxooxazolidin-5-ylmethyl]-1,2,3-triazole]
